Experiments:
KCL22 = assay: CellTiter-Blue cell viability, KCL22; assay type: cell-based, human; conditions: for IC50: Homo sapiens, KCL-22, 72 h, read-out: IC50 against KCL22
K562 = assay: CellTiter-Blue cell viability, K562; assay type: cell-based, human; conditions: for IC50: Homo sapiens, K562, 72 h, read-out: IC50 against K562
MNK2 = MNK2 (Homo sapiens, UniProt Q9HBH9); assay: biochemical; conditions: read-out: inhibition of MNK2
KCL22-IR = assay: CellTiter-Blue cell viability, KCL22-IR; assay type: cell-based, human; conditions: for IC50: Homo sapiens, 72 h, read-out: IC50 against KCL22-IR
MOLM14-D835Y = assay: CellTiter-Blue cell viability, MOLM14-D835Y; assay type: cell-based; conditions: Homo sapiens, 72 h, read-out: IC50 against MOLM14-D835Y
FLT3 (ITD) = biological target: T1, FLT3 (ITD) (Homo sapiens, UniProt P36888, ITD); assay: Reaction Biology 33P-ATP kinase assay, FLT3; conditions: read-out: inhibition against FLT3(ITD)
T1 sequence (P36888 564-993): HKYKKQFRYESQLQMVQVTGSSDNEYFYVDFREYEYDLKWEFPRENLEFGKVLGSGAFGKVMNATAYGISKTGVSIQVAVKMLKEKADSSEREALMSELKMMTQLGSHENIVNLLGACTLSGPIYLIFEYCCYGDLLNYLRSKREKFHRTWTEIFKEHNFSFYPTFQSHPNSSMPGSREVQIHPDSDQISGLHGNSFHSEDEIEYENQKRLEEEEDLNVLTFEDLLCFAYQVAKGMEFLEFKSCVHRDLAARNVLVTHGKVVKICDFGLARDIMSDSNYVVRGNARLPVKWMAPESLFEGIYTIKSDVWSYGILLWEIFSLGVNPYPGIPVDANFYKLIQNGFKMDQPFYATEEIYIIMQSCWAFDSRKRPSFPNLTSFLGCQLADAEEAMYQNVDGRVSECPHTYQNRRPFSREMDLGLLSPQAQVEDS

MV-4-11 = assay: CellTiter-Blue cell viability, MV-4-11; assay type: cell-based; conditions: Homo sapiens, MV4-11, 72 h, read-out: IC50 against MV-4-11
LC2/Ad = assay: CellTiter-Blue cell viability, LC2/Ad; assay type: cell-based; conditions: Homo sapiens, LC-2-ad, 72 h, read-out: IC50 against LC2/Ad
MOLM14-F691L = assay: CellTiter-Blue cell viability, MOLM14-F691L; assay type: cell-based; conditions: Homo sapiens, MOLM-14, 72 h, read-out: IC50 against MOLM14-F691L
c-SRC = c-SRC (Homo sapiens, UniProt P12931); assay: Reaction Biology 33P-ATP kinase assay, c-SRC; conditions: read-out: inhibition against c-Src
MOLM13-res = assay: CellTiter-Blue cell viability, MOLM13-res; assay type: cell-based; conditions: Homo sapiens, 72 h, read-out: IC50 against MOLM13-res
MOLM14 = assay: CellTiter-Blue cell viability, MOLM14; assay type: cell-based; conditions: Homo sapiens, MOLM-14, 72 h, read-out: IC50 against MOLM14
H520 = assay: CellTiter-Blue cell viability, H520; assay type: cell-based; conditions: Homo sapiens, NCI-H520, 72 h, read-out: IC50 against H520
ABL1 (T315I) = ABL1 (T315I) (Homo sapiens, UniProt P00519, T315I); assay: Reaction Biology 33P-ATP kinase assay, ABL1; conditions: read-out: inhibition against ABL1(T315I)
FLT3 (D835Y) = biological target: T2, FLT3 (D835Y) (Homo sapiens, UniProt P36888, D835Y); assay: Reaction Biology 33P-ATP kinase assay, FLT3; conditions: read-out: inhibition against FLT3(D835Y)
T2 sequence (P36888 27-993 D835Y): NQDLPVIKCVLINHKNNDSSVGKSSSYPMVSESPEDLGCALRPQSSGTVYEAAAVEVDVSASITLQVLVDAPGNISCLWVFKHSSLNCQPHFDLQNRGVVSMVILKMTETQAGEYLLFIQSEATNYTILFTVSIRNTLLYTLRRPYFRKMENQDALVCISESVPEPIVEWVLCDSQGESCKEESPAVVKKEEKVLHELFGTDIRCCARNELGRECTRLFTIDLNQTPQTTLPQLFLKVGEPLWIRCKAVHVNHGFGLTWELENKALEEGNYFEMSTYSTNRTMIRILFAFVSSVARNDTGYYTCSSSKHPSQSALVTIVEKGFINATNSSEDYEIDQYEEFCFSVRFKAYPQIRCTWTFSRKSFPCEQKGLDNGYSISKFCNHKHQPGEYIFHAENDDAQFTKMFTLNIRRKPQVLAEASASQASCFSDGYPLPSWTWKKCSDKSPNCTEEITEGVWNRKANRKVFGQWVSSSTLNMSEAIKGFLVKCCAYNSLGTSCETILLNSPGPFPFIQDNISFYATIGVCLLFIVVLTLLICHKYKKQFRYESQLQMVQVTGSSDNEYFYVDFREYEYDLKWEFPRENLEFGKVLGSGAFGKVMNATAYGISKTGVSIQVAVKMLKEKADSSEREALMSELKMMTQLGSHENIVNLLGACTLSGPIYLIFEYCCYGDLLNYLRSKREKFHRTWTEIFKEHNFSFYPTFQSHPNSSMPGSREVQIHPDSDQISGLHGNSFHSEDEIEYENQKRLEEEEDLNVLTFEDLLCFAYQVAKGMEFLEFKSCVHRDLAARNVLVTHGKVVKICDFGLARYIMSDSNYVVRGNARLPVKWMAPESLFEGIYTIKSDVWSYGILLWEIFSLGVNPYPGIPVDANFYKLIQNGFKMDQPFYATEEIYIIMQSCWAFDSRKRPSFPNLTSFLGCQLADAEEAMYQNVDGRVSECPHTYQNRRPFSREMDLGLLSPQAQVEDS

c-Kit = c-Kit (Homo sapiens, UniProt P10721); assay: Reaction Biology 33P-ATP kinase assay, c-Kit; assay type: biochemical
c-Kit, sequence (P10721 26-976): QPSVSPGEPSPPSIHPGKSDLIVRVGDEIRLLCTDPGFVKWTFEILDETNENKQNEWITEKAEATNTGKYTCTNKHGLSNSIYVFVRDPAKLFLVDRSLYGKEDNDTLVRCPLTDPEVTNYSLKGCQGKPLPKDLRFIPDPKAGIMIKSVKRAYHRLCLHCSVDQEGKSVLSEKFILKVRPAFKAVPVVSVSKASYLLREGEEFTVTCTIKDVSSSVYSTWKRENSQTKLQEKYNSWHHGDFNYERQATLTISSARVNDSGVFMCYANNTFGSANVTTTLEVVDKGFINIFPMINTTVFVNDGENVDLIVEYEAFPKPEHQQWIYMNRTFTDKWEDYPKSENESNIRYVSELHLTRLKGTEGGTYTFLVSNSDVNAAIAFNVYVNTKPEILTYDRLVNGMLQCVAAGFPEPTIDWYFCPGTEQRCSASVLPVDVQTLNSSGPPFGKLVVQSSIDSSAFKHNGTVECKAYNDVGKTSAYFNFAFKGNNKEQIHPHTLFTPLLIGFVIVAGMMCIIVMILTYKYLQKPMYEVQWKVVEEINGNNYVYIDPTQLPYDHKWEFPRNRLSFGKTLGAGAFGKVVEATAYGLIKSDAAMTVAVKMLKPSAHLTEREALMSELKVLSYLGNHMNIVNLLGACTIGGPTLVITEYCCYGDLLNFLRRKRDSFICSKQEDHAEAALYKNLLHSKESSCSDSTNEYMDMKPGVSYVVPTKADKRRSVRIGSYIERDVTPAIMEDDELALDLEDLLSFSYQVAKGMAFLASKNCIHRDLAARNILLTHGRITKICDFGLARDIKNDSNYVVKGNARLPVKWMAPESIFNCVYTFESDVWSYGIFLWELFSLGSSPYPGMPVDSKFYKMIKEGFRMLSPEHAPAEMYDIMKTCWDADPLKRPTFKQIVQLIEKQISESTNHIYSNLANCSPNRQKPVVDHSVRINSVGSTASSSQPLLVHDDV

c-SRC, sequence (P12931 whole entry): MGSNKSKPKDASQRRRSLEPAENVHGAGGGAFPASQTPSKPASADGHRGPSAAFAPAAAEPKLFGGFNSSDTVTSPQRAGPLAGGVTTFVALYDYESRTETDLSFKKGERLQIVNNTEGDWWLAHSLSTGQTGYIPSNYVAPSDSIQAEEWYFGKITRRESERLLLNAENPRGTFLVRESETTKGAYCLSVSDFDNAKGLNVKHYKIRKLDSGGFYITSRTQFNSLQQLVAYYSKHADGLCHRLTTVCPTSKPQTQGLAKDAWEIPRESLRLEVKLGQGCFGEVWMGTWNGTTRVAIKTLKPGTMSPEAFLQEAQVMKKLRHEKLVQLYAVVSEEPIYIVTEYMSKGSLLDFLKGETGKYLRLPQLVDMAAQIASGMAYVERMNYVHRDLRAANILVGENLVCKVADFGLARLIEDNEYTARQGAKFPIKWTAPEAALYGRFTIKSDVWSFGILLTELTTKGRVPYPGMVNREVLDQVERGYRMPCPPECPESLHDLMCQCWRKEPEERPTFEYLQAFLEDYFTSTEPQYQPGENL
MNK2, sequence (Q9HBH9 whole entry): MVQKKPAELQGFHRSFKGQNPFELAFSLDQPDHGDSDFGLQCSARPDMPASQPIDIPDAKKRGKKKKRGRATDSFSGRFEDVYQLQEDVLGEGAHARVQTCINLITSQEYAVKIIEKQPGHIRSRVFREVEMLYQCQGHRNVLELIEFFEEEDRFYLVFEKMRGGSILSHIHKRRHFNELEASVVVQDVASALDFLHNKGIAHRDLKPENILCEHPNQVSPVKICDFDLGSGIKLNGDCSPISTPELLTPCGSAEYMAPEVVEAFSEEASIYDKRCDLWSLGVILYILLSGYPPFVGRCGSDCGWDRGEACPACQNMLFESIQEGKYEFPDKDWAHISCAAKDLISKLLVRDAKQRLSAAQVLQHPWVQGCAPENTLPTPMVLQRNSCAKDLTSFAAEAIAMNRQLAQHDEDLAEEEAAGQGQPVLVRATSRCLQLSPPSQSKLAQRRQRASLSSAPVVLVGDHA

| Compound | IC50 (KCL22) | IC50 (K562) | inhibition at 0.123 µM (MNK2) | IC50 (KCL22-IR) | inhibition at 0.004 µM (FLT3 (ITD)) | inhibition at 0.111 µM (c-SRC) | further results |
| --- | --- | --- | --- | --- | --- | --- | --- |
| CN1CCN(Cc2ccc(NC(=O)c3cncc(C#Cc4cnc5cnccn45)c3)cc2C(F)(F)F)CC1 [HSL385, 5-(Imidazo[1,2-a]pyrazin-3-ylethynyl)-N-(4-((4-methylpiperazin-1-yl)methyl)-3-(trifluoromethyl)phenyl)nicotinamide] | 2.62 ± 0.06 nM | 0.94 ± 0.002 nM | 72% | 17.2 ± 0.86 nM | – | – | – |
| Cc1ccc(C(=O)Nc2ccc(CN3CCN(C)CC3)c(C(F)(F)F)c2)cc1C#Cc1cnc2cccnn12 [ponatinib, reference compound] | 0.14 ± 0.003 nM | 0.6 ± 0.002 nM | 32% | 0.66 ± 0.005 nM | < 40% | 98% | IC50 (MOLM14-D835Y): 52.6 nM; IC50 (MV-4-11): 0.09 nM; IC50 (LC2/Ad): 35.1 nM; IC50 (MOLM14-F691L): 6.8 nM; IC50 (MOLM13-res): 24.1 nM; IC50 (MOLM14): 0.45 nM; IC50 (H520): 128 nM |
| CN1CCN(Cc2ccc(NC(=O)c3cncc(C#Cc4cncc5nccn45)c3)cc2C(F)(F)F)CC1 [HSL407, 5-(Imidazo[1,2-a]pyrazin-5-ylethynyl)-N-(4-((4-methylpiperazin-1-yl)methyl)-3-(trifluoromethyl)phenyl)nicotinamide] | 2.93 ± 0.04 nM | 1.83 ± 0.02 nM | – | 49.7 ± 2.5 nM | – | – | – |
| CN1CCN(Cc2ccc(C(=O)Nc3cncc(C#Cc4cnc5cccnn45)c3)cc2C(F)(F)F)CC1 [HSL338, N-(5-(Imidazo[1,2-b]pyridazin-3-ylethynyl)pyridin-3-yl)-4-((4-methylpiperazin-1-yl)methyl)-3-(trifluoromethyl)benzamide] | 1.4 ± 0.02 nM | 0.45 ± 0.002 nM | – | 4.24 ± 0.05 nM | 84% | – | – |
| CN1CCN(Cc2ccc(NC(=O)c3cncc(C#Cc4cnc5ncccn45)c3)cc2C(F)(F)F)CC1 [HSL382, 5-(Imidazo[1,2-a]pyrimidin-3-ylethynyl)-N-(4-((4-methylpiperazin-1-yl)methyl)-3-(trifluoromethyl)phenyl)nicotinamide] | > 100 nM | – | – | > 100 nM | – | – | IC50 against KCL22 (KCL22; CML cell line, 72 h treatment): inactive; IC50 against K562 (K562; CML cell line (ABL1), 72 h treatment): inactive; IC50 against KCL22-IR (KCL22-IR; imatinib-resistant CML line, 72 h treatment): inactive |
| CN1CCN(Cc2ccc(NC(=O)c3cncc(C#Cc4cnc5ccccn45)c3)cc2C(F)(F)F)CC1 [HSL381, 5-(Imidazo[1,2-a]pyridin-3-ylethynyl)-N-(4-((4-methylpiperazin-1-yl)methyl)-3-(trifluoromethyl)phenyl)nicotinamide] | 0.89 ± 0.005 nM | 0.57 ± 0.003 nM | 84% | 4.24 ± 0.05 nM | 91% | – | inhibition at 0.123 µM (ABL1 (T315I)): 73% |
| CN1CCN(Cc2ccc(NC(=O)c3cccc(C#Cc4cnc5cccnn45)c3)cc2C(F)(F)F)CC1 [HSL331, 3-(Imidazo[1,2-b]pyridazin-3-ylethynyl)-N-(4-((4-methylpiperazin-1-yl)methyl)-3-(trifluoromethyl)phenyl)benzamide] | 0.63 ± 0.002 nM | 0.26 ± 0.002 nM | – | 2.86 ± 0.04 nM | – | – | – |
| CN1CCN(Cc2ccc(NC(=O)c3cncc(C#Cc4cnc5ccnn5c4)c3)cc2C(F)(F)F)CC1 [HSL412, N-(4-((4-Methylpiperazin-1-yl)methyl)-3-(trifluoromethyl)phenyl)-5-(pyrazolo[1,5-a]pyrimidin-6-ylethynyl)nicotinamide] | 28.1 ± 0.37 nM | 28.1 ± 0.6 nM | – | > 100 nM | – | – | – |
| CN1CCN(Cc2ccc(NC(=O)c3cncc(C#Cc4cnc5cccnn45)c3)cc2C(F)(F)F)CC1 [HSN748, 5-(Imidazo[1,2-b]pyridazin-3-ylethynyl)-N-(4-((4-methylpiperazin-1-yl)methyl)-3-(trifluoromethyl)phenyl)nicotinamide] | – | – | 85% | – | 86% | < 10% | inhibition at 0.111 µM (FLT3 (D835Y)): 87%; IC50 (MOLM14): 0.25 nM; IC50 (c-Kit): 96 ± 4.21 nM |
| Cc1ncc(C(=O)Nc2ccc(CN3CCN(C)CC3)c(C(F)(F)F)c2)cc1C#Cc1cnc2cccnn12 [HSL420, 5-(Imidazo[1,2-b]pyridazin-3-ylethynyl)-6-methyl-N-(4-((4-methylpiperazin-1-yl)methyl)-3-(trifluoromethyl)phenyl)nicotinamide] | 0.06 ± 0.002 nM | 0.06 ± 0.002 nM | – | 0.46 ± 0.01 nM | – | 32% | inhibition at 0.123 µM (ABL1 (T315I)): 83% |
